Test results: patent US20100234349A1, “PHARMACEUTICAL COMBINATIONS OF A NICOTINE RECEPTOR MODULATOR AND A COGNITIVE ENHANCER” (priority 2006, published 2010)
Entries after “also recorded” stand apart in the source; their conditions may differ.

System: mouse
Assay: mouse marble burying paradigm
Format: in vivo
Procedure: FIGS. 3A-3D show mouse marble burying 15 minutes after s.c. dosing of 1-(3-Pyridyl)-homopiperazine (Compound 1F of WO 99/21834) as cognition enhancer, and 30 minutes after p.o. dosing of 3-(3-Pyridin-3-yl-[1,2,4]oxadiazol-5-yl)-benzonitrile (Compound 4.15) as positive allosteric modulator: […]

| SMILES | effect in mouse marble burying, positive allosteric modulator alone (alone, dosed p.o. at 3 and 10 mg/kg, 30 minutes after dosing (FIG. 3A)) | ED50 (Mus musculus, sc, 0.25 h, read-out: ED50, mouse marble burying) |
| --- | --- | --- |
| N#Cc1cccc(-c2nc(-c3cccnc3)no2)c1 [Compound 4.15, 3-(3-Pyridin-3-yl-[1,2,4]oxadiazol-5-yl)-benzonitrile] | no effect; also recorded: inactive | – |
| c1cncc(N2CCCNCC2)c1 [Compound 1F of WO 99/21834, 1-(3-Pyridyl)-homopiperazine, reference compound] | – | 0.56 mg/kg |
